Measured values reported in BigSolDB 2.1.

N#CNC(=N)N
solubility (mole fraction)
Conditions	278.15 K	283.15 K	288.15 K	293.15 K	298.15 K	303.15 K	308.15 K	313.15 K	318.15 K	323.15 K
in DMF	0.183	0.19	0.205	0.215	0.225	0.243	0.248	0.256	0.268	0.275
in acetone	0.00744	0.0084	0.00923	0.0101	0.011	0.0118	0.0127	0.0136	0.0144	0.015
in ethanol	0.00374	0.00403	0.00449	0.00493	0.00591	0.00654	0.00738	0.00805	0.00883	0.0097
in ethylene glycol	0.0187	0.0245	0.0289	0.0377	0.048	0.0587	0.0655	0.0805	0.0995	0.12
in methanol	0.0141	0.0162	0.0193	0.021	0.0231	0.0264	0.028	0.0297	0.032	0.0347
in water	0.00303	0.00387	0.00526	0.00707	0.00891	0.0114	0.0141	0.0172	0.021	0.0265
